Measured values reported in PubChem BioAssay (NCI).
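96-well plates; 48 h exposure; 5 concentrations. Endpoints by linear interpolation between flanking doses. Not reached: highest tested concentration assigned. TGI: concentration producing complete growth inhibition.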

System: PC-3 prostate
Assay: NCI tumour cell line growth inhibition, 48 h

SMILES | TGI
O=S(=O)(O)CCCc1cccc2ccccc12 | > 100 µM
NC(CCCCCP(=O)(c1ccccc1)C1C=CC=CC1)C(=O)O (configuration not stated) | > 100 µM
CO/N=C(\C)c1ccc(Nc2nc3ccccc3c3occc23)cc1 | 30.3 µM
O=P(O)(O)CCP(=O)(O)O | > 100 µM
Cc1n(Cc2ccccc2)c2c([n+]1C)C(=O)c1ccccc1C2=O | 0.999 µM
CN(C)c1ccc(/C=c2/c3ccccc3n3c2c2c([n+]3C)CCCC2)cc1 | 2.06 µM
CCOc1ncn(-c2ccc(NC(=S)Nc3ncccn3)cc2)n1 | > 100 µM
CC1(C)OC(C(=O)Nc2cc3c4ccccc4ccc3c3ccccc23)C(C(=O)N2CCCCC2)O1 (configuration not stated) | > 100 µM
CC(=O)Nc1ccc(N=Nc2c(O)c(S(=O)(=O)O)cc3cc(S(=O)(=O)O)ccc23)cc1 | > 100 µM
Nc1c(C(=O)O)nnc2ccc(Cl)cc12 | > 100 µM
O=C(O)C(O)C(O)C(O)C(O)c1nc2ccccc2s1 (configuration not stated) | 30 µM

System: SN12K1 renal
Assay: NCI tumour cell line growth inhibition, 48 h

SMILES | TGI
CCCC(=O)OCC1OC(n2ccc(N)nc2=O)C(OC(=O)CCC)C1OC(=O)CCC (configuration not stated) | > 100 µM
COc1ccc(/C=C2\CCNC2=O)cc1 | > 100 µM
CC(C)Cc1ccc(C(C)C(=O)N2CCN(/C=C/c3ccccc3)CC2)cc1 (configuration not stated) | 27.1 µM
O=c1cc[nH]c(=O)[nH]1 | 994 µM

System: P388 leukemia
Assay: NCI tumour cell line growth inhibition, 48 h

SMILES | TGI
CCCC(=O)OCC1OC(n2ccc(N)nc2=O)C(OC(=O)CCC)C1OC(=O)CCC (configuration not stated) | 13.9 µM
COc1ccc(/C=C2\CCNC2=O)cc1 | > 100 µM
CC(C)Cc1ccc(C(C)C(=O)N2CCN(/C=C/c3ccccc3)CC2)cc1 (configuration not stated) | 29.8 µM
O=c1cc[nH]c(=O)[nH]1 | 447 µM

System: DMS 273 small cell lung
Assay: NCI tumour cell line growth inhibition, 48 h

SMILES | TGI
CCCC(=O)OCC1OC(n2ccc(N)nc2=O)C(OC(=O)CCC)C1OC(=O)CCC (configuration not stated) | > 100 µM
COc1ccc(/C=C2\CCNC2=O)cc1 | > 100 µM
CC(C)Cc1ccc(C(C)C(=O)N2CCN(/C=C/c3ccccc3)CC2)cc1 (configuration not stated) | 24.2 µM
O=c1cc[nH]c(=O)[nH]1 | > 729 µM
O=c1sc2ccccc2n1CC1CS1 (configuration not stated) | > 100 µM
O=C1c2cccc3c2C(=O)c2c(cccc21)OCCOCCOCCOCCO3 | > 100 µM
C=CCc1c(O)c2c(c3oc(=O)cc(C)c13)CC(C)O2 (configuration not stated) | > 100 µM
COc1cc2c(cc1OC)C(CC1=C(c3ccccc3)CN3CCc4cc(OC)c(OC)cc4C3C1)NCC2 (configuration not stated) | 31.6 µM

System: M19-MEL melanoma
Assay: NCI tumour cell line growth inhibition, 48 h

SMILES | TGI
CCCC(=O)OCC1OC(n2ccc(N)nc2=O)C(OC(=O)CCC)C1OC(=O)CCC (configuration not stated) | > 100 µM
CC(=O)OC1/C=C(\C)C(OC(C)=O)C/C=C(/C)CCC2C(/C=C/C1=O)C2(C)C (configuration not stated) | > 100 µM
COc1ccc(/C=C2\CCNC2=O)cc1 | > 100 µM
CC(C)Cc1ccc(C(C)C(=O)N2CCN(/C=C/c3ccccc3)CC2)cc1 (configuration not stated) | 29.7 µM
O=c1cc[nH]c(=O)[nH]1 | > 944 µM
O=c1sc2ccccc2n1CC1CS1 (configuration not stated) | > 100 µM
O=C1c2cccc3c2C(=O)c2c(cccc21)OCCOCCOCCOCCO3 | > 100 µM
C=CCc1c(O)c2c(c3oc(=O)cc(C)c13)CC(C)O2 (configuration not stated) | > 100 µM
COc1cc2c(cc1OC)C(CC1=C(c3ccccc3)CN3CCc4cc(OC)c(OC)cc4C3C1)NCC2 (configuration not stated) | 30.7 µM

System: RXF-631 renal
Assay: NCI tumour cell line growth inhibition, 48 h

SMILES | TGI
CC(=O)OC1/C=C(\C)C(OC(C)=O)C/C=C(/C)CCC2C(/C=C/C1=O)C2(C)C (configuration not stated) | > 100 µM
O=C1c2cccc3c2C(=O)c2c(cccc21)OCCOCCOCCOCCO3 | > 100 µM
COc1cc2c(cc1OC)C(CC1=C(c3ccccc3)CN3CCc4cc(OC)c(OC)cc4C3C1)NCC2 (configuration not stated) | 30.4 µM

System: XF 498 CNS
Assay: NCI tumour cell line growth inhibition, 48 h

SMILES | TGI
CC(=O)OC1/C=C(\C)C(OC(C)=O)C/C=C(/C)CCC2C(/C=C/C1=O)C2(C)C (configuration not stated) | > 100 µM
COc1ccc(/C=C2\CCNC2=O)cc1 | > 100 µM
CC(C)Cc1ccc(C(C)C(=O)N2CCN(/C=C/c3ccccc3)CC2)cc1 (configuration not stated) | 27.3 µM
O=c1cc[nH]c(=O)[nH]1 | 7.72 µM
O=c1sc2ccccc2n1CC1CS1 (configuration not stated) | > 100 µM
COc1cc2c(cc1OC)C(CC1=C(c3ccccc3)CN3CCc4cc(OC)c(OC)cc4C3C1)NCC2 (configuration not stated) | 25.9 µM

System: HS 578T breast
Assay: NCI tumour cell line growth inhibition, 48 h

SMILES | TGI
O=S(=O)(O)CCCc1cccc2ccccc12 | > 100 µM
NC(CCCCCP(=O)(c1ccccc1)C1C=CC=CC1)C(=O)O (configuration not stated) | > 100 µM
CO/N=C(\C)c1ccc(Nc2nc3ccccc3c3occc23)cc1 | 30.7 µM
O=P(O)(O)CCP(=O)(O)O | > 100 µM
Cc1n(Cc2ccccc2)c2c([n+]1C)C(=O)c1ccccc1C2=O | 2.14 µM
CN(C)c1ccc(/C=c2/c3ccccc3n3c2c2c([n+]3C)CCCC2)cc1 | 7.21 µM
CC1(C)OC(C(=O)Nc2cc3c4ccccc4ccc3c3ccccc23)C(C(=O)N2CCCCC2)O1 (configuration not stated) | > 96.6 µM
CCN(CC)CCNc1ccc2nnn3c4ccc(OCCN(CC)CC)cc4c(=O)c1c23 | > 100 µM
CC(=O)Nc1ccc(N=Nc2c(O)c(S(=O)(=O)O)cc3cc(S(=O)(=O)O)ccc23)cc1 | > 100 µM
Nc1c(C(=O)O)nnc2ccc(Cl)cc12 | > 100 µM
O=C(O)C(O)C(O)C(O)C(O)c1nc2ccccc2s1 (configuration not stated) | 60.2 µM

System: DLD-1 colon
Assay: NCI tumour cell line growth inhibition, 48 h

SMILES | TGI
CCCC(=O)OCC1OC(n2ccc(N)nc2=O)C(OC(=O)CCC)C1OC(=O)CCC (configuration not stated) | > 100 µM
CC(=O)OC1/C=C(\C)C(OC(C)=O)C/C=C(/C)CCC2C(/C=C/C1=O)C2(C)C (configuration not stated) | > 100 µM
COc1ccc(/C=C2\CCNC2=O)cc1 | > 100 µM
CC(C)Cc1ccc(C(C)C(=O)N2CCN(/C=C/c3ccccc3)CC2)cc1 (configuration not stated) | 27.3 µM
O=c1cc[nH]c(=O)[nH]1 | > 1000 µM
O=C1c2cccc3c2C(=O)c2c(cccc21)OCCOCCOCCOCCO3 | > 100 µM
C=CCc1c(O)c2c(c3oc(=O)cc(C)c13)CC(C)O2 (configuration not stated) | > 100 µM
COc1cc2c(cc1OC)C(CC1=C(c3ccccc3)CN3CCc4cc(OC)c(OC)cc4C3C1)NCC2 (configuration not stated) | 34.9 µM

System: 786-0 renal
Assay: NCI tumour cell line growth inhibition, 48 h

SMILES | TGI
O=S(=O)(O)CCCc1cccc2ccccc12 | > 100 µM
CO/N=C(\C)c1ccc(Nc2nc3ccccc3c3occc23)cc1 | 27.2 µM
O=P(O)(O)CCP(=O)(O)O | > 100 µM
Cc1n(Cc2ccccc2)c2c([n+]1C)C(=O)c1ccccc1C2=O | 0.877 µM
CN(C)c1ccc(/C=c2/c3ccccc3n3c2c2c([n+]3C)CCCC2)cc1 | 3.24 µM
CC1(C)OC(C(=O)Nc2cc3c4ccccc4ccc3c3ccccc23)C(C(=O)N2CCCCC2)O1 (configuration not stated) | > 100 µM
CCN(CC)CCNc1ccc2nnn3c4ccc(OCCN(CC)CC)cc4c(=O)c1c23 | > 100 µM
COc1cc2c(cc1OC)C(CC1=C(c3ccccc3)CN3CCc4cc(OC)c(OC)cc4C3C1)NCC2 (configuration not stated) | 29.5 µM
CC(=O)Nc1ccc(N=Nc2c(O)c(S(=O)(=O)O)cc3cc(S(=O)(=O)O)ccc23)cc1 | > 100 µM
Nc1c(C(=O)O)nnc2ccc(Cl)cc12 | > 100 µM
O=C(O)C(O)C(O)C(O)C(O)c1nc2ccccc2s1 (configuration not stated) | 30.4 µM

System: KM20L2 colon
Assay: NCI tumour cell line growth inhibition, 48 h

SMILES | TGI
CCCC(=O)OCC1OC(n2ccc(N)nc2=O)C(OC(=O)CCC)C1OC(=O)CCC (configuration not stated) | > 100 µM
CC(=O)OC1/C=C(\C)C(OC(C)=O)C/C=C(/C)CCC2C(/C=C/C1=O)C2(C)C (configuration not stated) | > 100 µM
COc1ccc(/C=C2\CCNC2=O)cc1 | > 100 µM
CC(C)Cc1ccc(C(C)C(=O)N2CCN(/C=C/c3ccccc3)CC2)cc1 (configuration not stated) | 29.9 µM
O=c1cc[nH]c(=O)[nH]1 | > 1000 µM
O=c1sc2ccccc2n1CC1CS1 (configuration not stated) | > 100 µM
O=C1c2cccc3c2C(=O)c2c(cccc21)OCCOCCOCCOCCO3 | > 100 µM
C=CCc1c(O)c2c(c3oc(=O)cc(C)c13)CC(C)O2 (configuration not stated) | > 100 µM
COc1cc2c(cc1OC)C(CC1=C(c3ccccc3)CN3CCc4cc(OC)c(OC)cc4C3C1)NCC2 (configuration not stated) | 28.9 µM

System: LXFL 529 NSCLC
Assay: NCI tumour cell line growth inhibition, 48 h

SMILES | TGI
CC(=O)OC1/C=C(\C)C(OC(C)=O)C/C=C(/C)CCC2C(/C=C/C1=O)C2(C)C (configuration not stated) | > 100 µM
O=C1c2cccc3c2C(=O)c2c(cccc21)OCCOCCOCCOCCO3 | > 100 µM
C=CCc1c(O)c2c(c3oc(=O)cc(C)c13)CC(C)O2 (configuration not stated) | > 100 µM
COc1cc2c(cc1OC)C(CC1=C(c3ccccc3)CN3CCc4cc(OC)c(OC)cc4C3C1)NCC2 (configuration not stated) | 31.1 µM

System: P388/ADR leukemia
Assay: NCI tumour cell line growth inhibition, 48 h

SMILES | TGI
CCCC(=O)OCC1OC(n2ccc(N)nc2=O)C(OC(=O)CCC)C1OC(=O)CCC (configuration not stated) | > 100 µM
COc1ccc(/C=C2\CCNC2=O)cc1 | > 100 µM
CC(C)Cc1ccc(C(C)C(=O)N2CCN(/C=C/c3ccccc3)CC2)cc1 (configuration not stated) | 42.1 µM
O=c1cc[nH]c(=O)[nH]1 | 807 µM
